Laboratory results from PMC6225302, “Depsidone Derivatives and a Cyclopeptide Produced by Marine Fungus Aspergillus unguis under Chemical Induction and by Its Plasma Induced Mutant” (Molecules : A Journal of Synthetic Chemistry and Natural …, 2018).
Converted amounts (≈) assume the structure as drawn. “And” between values parts separate entries of the source, which are not always exact repeats. Equal entries are not always repeated. Where two headings read alike, the source gives them in different places. Where a SMILES comes first, the peptide text is derived from it. [ ]: non-standard residue; d: D form. GABA = NCCCC(=O)O

Legend:
[1] = Brine shrimp larva lethality test; type: in vivo, Artemia salina; conditions: 24 h at 28 °C, read-out: Larvicidal Activity (LC50)
Protocol: Compounds 1‒10 were evaluated for larvicidality using the brine shrimp (Artemia salina) larva lethality test. 0.15 g of frozen eggs of brine shrimp larva (purchased from Aijia Aquarium Co., Zhanjiang, China) were activated at room temperature for 12 h. After activation, eggs were added to 1 L of artificial seawater (3% sea salt), ventilated with air for 420 mL/min, then kept at a brightness at 1000 lux and incubated at 28 °C for 24 h. After incubation, the larvae were induced to the top of the separating funnel by phototaxis, and the dead ones on bottom were discharged. Then, in each well of the 96-well plate, 1 μL of test compounds (in DMSO) with different concentrations and 99 μL of seawater containing 20‒30 live larvae were added. After incubation under light at 28 °C for 24 h, recorded the numbers of dead larvae. Finally, 10 μL of the Lucus reagent were added into each well and the total number of brine shrimp larva in the well were counted. DMSO and Hg(NO3)2 were used as blank control and positive control, respectively. Lethality rate (%)=(lethality of treatment−lethality of blank control)/survival rate of blank control×100%
The brine shrimp larva LC50 value is the concentration required to kill 50% of the larvae. Likewise, the LC50 was calculated using Origin 8.0 plotting and cubic polynomial regression.

[2] = tested on: methicillin-resistant Staphylococcus aureus (A7983, clinical isolate); test: Antimicrobial paper disc diffusion method; type: cell-based; conditions: MRSA; for zone of inhibition at 10 µg/disc: Staphylococcus aureus
Protocol: (§1) Preliminary antimicrobial tests for compounds 1‒10 were carried out against pathogenetic strains, including Pseudomonas aeruginosa (ATCC 9027), methicillin-resistant Staphylococcus aureus (A7983, clinical isolate donated by Zhijun Yu in Dalian Friendship Hospital, Dalian, China), Vibrio parahemolyticus (ZouB, aquatic pathogen donated by Chongqing Wen in College of Fishery, Guangdong Ocean University, Zhanjiang, China), and Candida albicans (ATCC 10231) using the disc diffusion method. Muller Hinton agar (MHA) and Sabouraud agar (SA) were used for antibacterial and antifungal tests, respectively. For each sample, 10 μg was added onto paper disc (diameter of 6 mm) for tests. The minimum inhibition concentrations (MICs) of the compounds were tested using microdilution methods. Ampicillin and ketoconazole were taken as positive controls for antibacterial and antifungal tests, respectively. Solvents (MeOH and DMSO) were used as blank controls.

[3] = tested on: Candida albicans (ATCC 10231); test: Antimicrobial paper disc diffusion method; type: cell-based; conditions: Candida albicans, ATCC10231; C. albicans; 10 μg per disc; paper disc diameter 6.0 mm; mean ± SD of three replicates
Protocol: as §1

[4] = tested on: Vibrio parahemolyticus (ZouB); test: Antimicrobial paper disc diffusion method; type: cell-based; conditions: V. parahemolyticus, incomplete inhibition, 10 μg per disc, paper disc diameter 6.0 mm, mean ± SD of three replicates; for zone of inhibition at 10 µg/disc: Vibrio
Protocol: as §1

[5] = tested on: Pseudomonas aeruginosa (ATCC 9027); test: Antimicrobial paper disc diffusion method; type: cell-based; conditions: P. aeruginosa, 10 μg per disc, paper disc diameter 6.0 mm, mean ± SD of three replicates; for zone of inhibition at 10 µg/disc: Pseudomonas aeruginosa, ATCC9027
Protocol: as §1

[6] = tested on: methicillin-resistant Staphylococcus aureus (A7983, clinical isolate); test: Antimicrobial microdilution method (MIC); type: cell-based; conditions: MRSA
Protocol: as §1

[7] = tested on: Candida albicans (ATCC 10231); test: Antimicrobial microdilution method (MIC); type: cell-based; conditions: ATCC10231, C. albicans
Protocol: as §1

[8] = tested on: Pseudomonas aeruginosa (ATCC 9027); test: Antimicrobial microdilution method (MIC); type: cell-based; conditions: ATCC9027, P. aeruginosa
Protocol: as §1

[9] = molecular target: T1, Acetylcholinesterase (AChE, from electric eels) (Electrophorus electricus, UniProt O42275); test: AChE inhibition assay (modified Ellman's method); type: biochemical; conditions: AChE Inhibitory Activity (IC50), 0.2 U/mL, 37 °C
T1 construct: purchased Sigma-Aldrich
T1 sequence (O42275 24-633): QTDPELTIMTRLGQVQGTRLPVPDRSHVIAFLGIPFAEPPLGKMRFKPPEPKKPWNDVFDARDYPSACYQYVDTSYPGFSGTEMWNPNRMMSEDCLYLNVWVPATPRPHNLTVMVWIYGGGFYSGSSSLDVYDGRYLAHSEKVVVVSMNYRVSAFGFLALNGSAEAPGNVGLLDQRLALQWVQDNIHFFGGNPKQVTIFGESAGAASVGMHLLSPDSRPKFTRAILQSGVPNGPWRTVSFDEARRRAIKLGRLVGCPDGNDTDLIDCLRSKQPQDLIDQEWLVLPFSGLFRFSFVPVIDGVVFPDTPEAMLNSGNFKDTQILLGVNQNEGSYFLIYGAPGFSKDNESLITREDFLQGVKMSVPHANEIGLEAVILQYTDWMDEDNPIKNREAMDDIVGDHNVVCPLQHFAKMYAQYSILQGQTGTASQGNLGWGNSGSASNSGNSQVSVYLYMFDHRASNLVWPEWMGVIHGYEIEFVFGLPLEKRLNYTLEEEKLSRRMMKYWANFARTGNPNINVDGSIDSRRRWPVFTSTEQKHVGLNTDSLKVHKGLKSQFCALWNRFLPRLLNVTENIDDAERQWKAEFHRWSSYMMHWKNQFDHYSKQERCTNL
Protocol: Acetylcholinesterase (AChE, from electric eels), acetythiocholine iodide (ATCh), 5,5-dithiobis-(2-nitrobenzoic acid) (DTNB), and bovine serum albumin (BSA, A1933) were purchased from Sigma-Aldrich. 100 mM PBS (pH = 7.4) was prepared with K2HPO4 and KH2PO4. In vitro AChE inhibitory activity was measured in 96-well plates using modified Ellman’s methods. […] Each well contained 1 μL of prepared sample, 49 μL of PBS, 10 μL of enzyme with a final concentration of 0.2 U/mL in BSA ([…] in PBS), and 20 μL of DTNB (5 mM in PBS). Then, the plates were preincubated at 37 °C for 10 min. Afterwards, 20 μL of ATCh (10 mM in PBS) was added into the well. After incubation at 37 °C for 20 min, the 96-well plates were read at 405 nm on the microplate reader, and the inhibition ratios to AChE were calculated using the following equation, where Asample blank stands for the absorbance of a well without enzyme, Asample stands for the absorbance of the treatment, Acontorl stands for the absorbance of the well without the sample, and Ablank stands for the absorbance of the well without the sample and enzyme. Donepezil was taken as a positive control. Inhibition of AChE (%)=[(Acontrol−Ablank)−(Asample−Asample blank)]/(Acontrol−Ablank)×100%
The inhibition rates and concentration logarithm (lnC) values were imported into the Origin 8.0 software (OriginLab Co., Ltd., Northampton, MA, USA). The cubic polynomial regression equation was used to calculate ln(IC50). Then, IC50 was calculated using Microsoft Excel.

[10] = tested on: Vibrio parahemolyticus (ZouB); test: microbe, parasite or virus in culture; type: cell-based
Protocol: as §1

[11] = DPPH free radical scavenging assay; conditions: 0.16 mM DPPH, 30 min in darkness at room temperature
Protocol: The free radical scavenging potentials of compounds 1‒10 were evaluated in 96-well plates using the DPPH free radical scavenging assay described by Sharma and Bhat. A total of 100 μL of the reaction mixture was composed of 50 μL of 0.16 mM DPPH (Sigma-Aldrich, St. Louis, MO, USA) in methanol and 50 μL of the test compound (in DMSO) with different concentrations (Asample). The reaction mixture was incubated for 30 min in darkness at room temperature. Meanwhile, 50 μL of 0.16 mM DPPH with 50 μL of DMSO was used as control (Acontrol), 50 μL of methanol and 50 μL of different concentrations of the test compound in DMSO were used as the sample blanks (Asample blank), 50 μL methanol with 50 μL DMSO was used as the blank (Ablank), while vitamin C was taken as a positive control. The absorbance was measured at 517 nm on the microplate reader. Scavenging capacity (%)=[(Acontrol−Ablank)−(Asample−Asample blank)]/(Acontrol−Ablank)×100%
The EC50 value is the concentration required to scavenge 50% of DPPH radicals. Likewise, the EC50 was calculated using Origin 8.0 plotting and cubic polynomial regression.

[12] = Artemia salina (brine shrimp) larvae, live brine shrimp larvae in 96-well plate, other: immersion in seawater containing the compound

SMILES	LC50 at 24 h [1, 12] [µM]	zone of inhibition at 10 µg/disc [2] [mm]	zone of inhibition at 10 µg/disc [3] [mm]	zone of inhibition at 10 µg/disc [4] [mm]	zone of inhibition at 10 µg/disc [5] [mm]	MIC [6] [µM]	MIC [7] [µM]	MIC [8] [µM]	IC50 [9]	MIC ([10]; Vibrio) [µM]	EC50 [11] [µM]	LC50 at 24 h ([1]; brine shrimp (Artemia salina), in vivo, brine shrimp larvae) [µM]	MIC ([10]; V. parahemolyticus, microdilution method, read-out: MIC) [µM]	Zone of Inhibition ([2]; 10 μg per disc, paper disc diameter 6.0 mm, mean ± SD of three replicates)	Zone of Inhibition [4]	Zone of Inhibition [5]
C/C=C(\C)c1cc(O)c(C)c2c1Oc1cc(O)cc(C)c1C(=O)O2 [Compound 6, unguinol]	> 102	7	8 ± 0.5	7	8.7 ± 2.1	> 102	> 102	102 (≈ 33.4 µg/mL)	> 102 µM	> 102	> 102					
CC=C(C)c1c(Cl)c(O)c(C)c2c1Oc1cc(O)c(Cl)c(C)c1C(=O)O2 [Compound 7, aspergillusidone C]	72	13.7 ± 2.3	7.9 ± 0.2	9.7 ± 0.6	10	> 102	> 102	25.6 (≈ 10.1 µg/mL)	> 102 µM	> 102	> 102					
CC=C(C)c1cc(O)c(C)c2c1Oc1cc(O)c(Cl)c(C)c1C(=O)O2 [Compound 8, 2-chlorounguinol]	75.9	17	10	8.3 ± 0.6	11.1 ± 0.2	25.6 (≈ 9.24 µg/mL)	> 102	51.2 (≈ 18.5 µg/mL)	> 102 µM	> 102	> 102					
CC=C(C)c1c2c(c(C)c(O)c1C(=O)O)OC(=O)c1c(C)cc(O)cc1O2 [Compound 9, aspergillusidone A]	51.2	17.7 ± 0.6	15.5 ± 2.2	8.3 ± 0.6	16	12.8 (≈ 4.74 µg/mL)	6.4 (≈ 2.37 µg/mL)	102 (≈ 37.9 µg/mL)	56.7 µM and 56.8 µM	> 102	> 102					
CC(C)[C@H]1NC(=O)[C@H](Cc2ccccc2)NC(=O)[C@@H](C(C)C)NC(=O)[C@@H](C)NC(=O)CCCNC(=O)[C@@H](Cc2c[nH]c3ccccc23)NC(=O)[C@@H](C)NC1=O [Compound 10, unguisin A] (cyclo(F[dV][dA][dW][GABA][dA][dV]))									> 102 µM			> 102	>102.4			
CC(=O)N1CCN(c2ccc(OCC3COC(Cn4ccnc4)(c4ccc(Cl)cc4Cl)O3)cc2)CC1 (centres unmarked) [Ketoconazole, reference compound]			22				1.9 (≈ 1.01 µg/mL)							-	-	-
O=C1O[C@H]([C@@H](O)CO)C(O)=C1O [Vitamin C, vitamin C, reference compound]											31.8					
